In patent US6867320B2, “Substituted phenylalkanoic acid derivatives and use thereof” (Asahi Kasei Pharma Corporation, priority 2002, dated 2005):

Test system: PGE2 production from IL-1β-stimulated MG-63 cells
Test: Suppressing action on PGE2 production from IL-1β-stimulated MG-63 cells
Format: cell-based
Settings: Homo sapiens, IL-1β 1 ng/ml, 18 hours, read-out: PGE2 production suppression ratio
From the text: 1. Suppressing Action on PGE2 Production from IL-1β-Stimulated MG-63 Cells (1) Method for Measurement
An action of suppressing PGE2 production caused by interleukin (IL) 1β as an inflammatory stimulant was studied by the following method. Cells of MG-63, which is a human osteosarcoma cell line (purchased from Dainippon Pharmaceutical), were suspended in EMEM medium (GIBCO) containing 10% fetal bovine serum (BioFluid), and then inoculated to each well of 96-well culture plate at a density of 2×10^4 cells/well and cultured overnight. The medium was changed to EMEM medium containing 0.5% fetal bovine serum, and then a test compound was added with each well. Human interleukin-1β (ENDOGEN) was further added as an inflammatory stimulant at a final concentration of 1 ng/ml. The cells were further cultured for 18 hours. The culture supernatant was collected, and the PGE2 concentration in the culture supernatant was measured by using EIA kit (CAYMAN). By using a well which was not added with the stimulant as a negative control and a well which was added only with the stimulant as a positive control, suppression ratios on PGE2 production were calculated from produced amounts of PGE2 in the well added with the test compound using the following equation. PGE2 production suppression ratio=[1−(C−B)/(A−B)]×100 • A: PGE2 production amount of positive control • B: PGE2 production amount of negative control • C: PGE2 production amount in well added with test compound

With `O=C(O)CCc1ccc(OC2CCCCC2)c(-c2ccc3ncsc3c2)c1` [Compound 330, 3-[3-(benzothiazol-6-yl)-4-cyclohexyloxyphenyl]propionic acid] as the molecule, how does the inhibition at 0.4 µM read?
The inhibition at 0.4 µM was no less than 50%.

How did the inhibition at 0.4 µM turn out when `CNS(=O)(=O)c1ccc2cc(-c3cc(CCC(=O)O)ccc3OCC3CCCC3)ccc2c1` [Compound 026, 3-{4-cyclopentylmethyloxy-3-[6-(N-methylsulfamoyl)naphthalen-2-yl]phenyl}propionic acid] was run?
The inhibition at 0.4 µM was no less than 50%.

`O=C(O)CCc1ccc(OCCC2CCCCC2)c(-c2ccc3ccccc3c2)c1` [Compound 049, 3-[4-(2-cyclohexylethyloxy)-3-(naphthalen-2-yl)phenyl]propionic acid] was tested. Which inhibition at 0.4 µM did it give?
The inhibition at 0.4 µM was no less than 50%.

`COC(=O)CCc1cc(-c2ccc3ccccc3c2)c(OC2CCCC2)c([N+](=O)[O-])c1` [Compound 331, methyl 3-[4-cyclopentyloxy-3-(naphthalen-2-yl)-5-nitrophenyl]propionate] was tested. Which inhibition at 0.4 µM did it give?
Its inhibition at 0.4 µM is no less than 50%.

For `O=C(O)CCc1ccc(OCC2CCCC2)c(-c2ccc3c(ccn3C3CCCC3)c2)c1` [Compound 242, 3-[3-(1-cyclopentyl-1H-indol-5-yl)-4-cyclopentylmethyloxyphenyl]propionic acid], which inhibition at 0.4 µM is on record?
Its inhibition at 0.4 µM is no less than 50%.

`O=C(O)CCc1ccc(OC2CCCCCC2)c(-c2ccc3[nH]ccc3c2)c1` [Compound 184, 3-[4-cycloheptyloxy-3-(1H-indol-5-yl)phenyl]propionic acid] was tested. Which inhibition at 0.4 µM did it give?
The inhibition at 0.4 µM was no less than 50%.

`CNc1cc(CCC(=O)O)cc(-c2ccc3c(cnn3C)c2)c1OC1Cc2ccccc2C1` [Compound 587, 3-[4-(indan-2-yloxy)-3-(N-methylamino)-5-(1-methyl-1H-indazol-5-yl)phenyl]propionic acid] was tested. Which inhibition at 0.4 µM did it give?
Its inhibition at 0.4 µM is no less than 50%.

How did the inhibition at 0.4 µM turn out when `CN(C)c1ccc2cc(-c3cc(CCC(=O)O)ccc3OCC3CCCC3)ccc2c1` [Compound 018, 3-{4-cyclopentylmethyloxy-3-[6-(N,N-dimethylamino)naphthalen-2-yl]phenyl}propionic acid] was run?
Its inhibition at 0.4 µM is no less than 50%.

With `Cn1c(=N)sc2cc(-c3cc(CCC(=O)O)ccc3OCC3CCCC3)ccc21` [Compound 303, 3-[4-cyclopentylmethyloxy-3-(2-imino-3-methyl-2,3-dihydrobenzothiazol-6-yl)phenyl]propionic acid] as the molecule, how does the inhibition at 0.4 µM read?
The inhibition at 0.4 µM was no less than 50%.

For `O=C(O)CCc1ccc(OC2CCCCC2)c(-c2cccc3[nH]ccc23)c1` [Compound 120, 3-[4-cyclohexyloxy-3-(1H-indol-4-yl)phenyl]propionic acid], which inhibition at 0.4 µM is on record?
The inhibition at 0.4 µM was no less than 50%.

For `Cc1cc(C)cc(COc2ccc(CCC(=O)O)cc2-c2ccc3[nH]ccc3c2)c1` [Compound 175, 3-[4-(3,5-dimethylphenylmethyloxy)-3-(1H-indol-5-yl)phenyl]propionic acid], which inhibition at 0.4 µM is on record?
The inhibition at 0.4 µM was no less than 50%.

With `Cc1nn(C)c2ccc(-c3cc(CCC(=O)O)ccc3OC3CCCC3)cc12` [Compound 576, 3-[4-cyclopentyloxy-3-(1,3-dimethyl-1H-indazol-5-yl)phenyl]propionic acid] as the molecule, how does the inhibition at 0.4 µM read?
Its inhibition at 0.4 µM is no less than 50%.

`Cc1oc2ccc(-c3cc(CCC(=O)O)ccc3OCC3CCCCC3)cc2c1C` [Compound 279, 3-[4-cyclohexylmethyloxy-3-(2,3-dimethylbenzo[b]furan-5-yl)phenyl]propionic acid] was tested. Which inhibition at 0.4 µM did it give?
The inhibition at 0.4 µM was no less than 50%.

Which inhibition at 0.4 µM does the source give for `O=C(O)CCc1ccc(OCC2CCCCC2)c(-c2ccc3cc(C(=O)O)ccc3c2)c1` [Compound 029, 3-[3-(6-carboxynaphthalen-2-yl)-4-cyclohexylmethyloxyphenyl]propionic acid] here?
Its inhibition at 0.4 µM is no less than 50%.

Which inhibition at 0.4 µM does the source give for `O=C(O)CCc1ccc(OCc2cc(Cl)cc(Cl)c2)c(-c2ccc3[nH]ccc3c2)c1` [Compound 188, 3-[4-(3,5-dichlorophenylmethyloxy)-3-(1H-indol-5-yl)phenyl]propionic acid] here?
Its inhibition at 0.4 µM is no less than 50%.

For `O=C(O)CCc1ccc(OCC2CCCC2)c(-c2ccc3[nH]c(=O)sc3c2)c1` [Compound 310, 3-[4-cyclopentylmethyloxy-3-(2-oxo-2,3-dihydrobenzothiazol-6-yl)-phenyl]propionic acid], which inhibition at 0.4 µM is on record?
Its inhibition at 0.4 µM is no less than 50%.

`O=C(O)CCc1ccc(OCC2CCCC2)c(-c2ccc3ccc(NC(=O)c4ccco4)cc3c2)c1` [Compound 090, 3-(4-cyclopentylmethyloxy-3-{7-[(furan-2-carbonyl)amino]naphthalen-2-yl}phenyl)propionic acid] was tested. Which inhibition at 0.4 µM did it give?
Its inhibition at 0.4 µM is no less than 50%.

For `O=C(O)CCc1ccc(OCc2ccco2)c(-c2ccc3[nH]ccc3c2)c1` [Compound 194, 3-{4-[(furan-2-yl)methyloxy]-3-(1H-indol-5-yl)phenyl}propionic acid], which inhibition at 0.4 µM is on record?
Its inhibition at 0.4 µM is no less than 50%.

How did the inhibition at 0.4 µM turn out when `CC(C)Oc1ccc(CCC(=O)O)cc1-c1ccc2ccccc2c1` [Compound 041, 3-[4-isopropyloxy-3-(naphthalen-2-yl)phenyl]propionic acid] was run?
The inhibition at 0.4 µM was no less than 50%.

`O=C(O)CCc1ccc(OCC2CCCCC2)c(-c2ccc3ncccc3c2)c1` [Compound 319, 3-[4-cyclohexylmethyloxy-3-(quinolin-6-yl)phenyl]propionic acid] was tested. Which inhibition at 0.4 µM did it give?
Its inhibition at 0.4 µM is no less than 50%.

How did the inhibition at 0.4 µM turn out when `O=C(O)CCc1ccc(OCC2CCCC2)c(-c2ccc3ccc(O)cc3c2)c1` [Compound 008, 3-[4-cyclopentylmethyloxy-3-(7-hydroxynaphthalen-2-yl)-phenyl]propionic acid] was run?
The inhibition at 0.4 µM was no less than 50%.

How did the inhibition at 0.4 µM turn out when `Cn1ccc2c(-c3cc(CCC(=O)O)ccc3OC3CCCC3)cccc21` [Compound 124, 3-[4-cyclopentyloxy-3-(1-methyl-1H-indol-4-yl)phenyl]propionic acid] was run?
The inhibition at 0.4 µM was no less than 50%.

With `CCCCn1ccc2cc(-c3cc(CCC(=O)O)ccc3OCC3CCCC3)ccc21` [Compound 240, 3-[3-(1-butyl-1H-indol-5-yl)-4-cyclopentylmethyloxyphenyl]propionic acid] as the molecule, how does the inhibition at 0.4 µM read?
The inhibition at 0.4 µM was no less than 50%.

Which inhibition at 0.4 µM does the source give for `NS(=O)(=O)Nc1ccc2cc(-c3cc(CCC(=O)O)ccc3OCC3CCCC3)ccc2c1` [Compound 020, 3-[4-cyclopentylmethyloxy-3-(6-sulfamoylaminonaphthalen-2-yl)phenyl]propionic acid] here?
Its inhibition at 0.4 µM is no less than 50%.

Which inhibition at 0.4 µM does the source give for `O=C(O)CCc1ccc(OCc2ccc(C(F)(F)F)cc2)c(-c2ccc3[nH]ccc3c2)c1` [Compound 172, 3-{3-(1H-indol-5-yl)-4-[4-(trifluoromethyl)phenylmethyloxy]-phenyl}propionic acid] here?
The inhibition at 0.4 µM was no less than 50%.

Which inhibition at 0.4 µM does the source give for `O=C(O)CCc1ccc(OCC2CCCC2)c(-c2cnc3ccccc3c2)c1` [Compound 315, 3-[4-cyclopentylmethyloxy-3-(quinolin-3-yl)phenyl]propionic acid] here?
Its inhibition at 0.4 µM is no less than 50%.

How did the inhibition at 0.4 µM turn out when `CC(C)n1ccc2cc(-c3cc(CCC(=O)O)ccc3OCC3CCCC3)ccc21` [Compound 238, 3-[4-cyclopentylmethyloxy-3-(1-isopropyl-1H-indol-5-yl)phenyl]propionic acid] was run?
The inhibition at 0.4 µM was no less than 50%.

With `Nc1nc2cc(-c3cc(CCC(=O)O)ccc3OCC3CCCC3)ccc2s1` [Compound 285, 3-[3-(2-aminobenzothiazol-5-yl)-4-cyclopentylmethyloxyphenyl]propionic acid] as the molecule, how does the inhibition at 0.4 µM read?
The inhibition at 0.4 µM was no less than 50%.

How did the inhibition at 0.4 µM turn out when `COc1cc(CCC(=O)O)cc(-c2ccc3c(ccn3C)c2)c1OC1CCCC1` [Compound 580, 3-[4-cyclopentyloxy-3-methoxy-5-(1-methyl-1H-indol-5-yl)phenyl]propionic acid] was run?
Its inhibition at 0.4 µM is no less than 50%.

For `Cc1n[nH]c2ccc(-c3cc(CCC(=O)O)ccc3OC3CCCC3)cc12` [Compound 574, 3-[4-cyclopentyloxy-3-(3-methyl-1H-indazol-5-yl)phenyl]propionic acid], which inhibition at 0.4 µM is on record?
Its inhibition at 0.4 µM is no less than 50%.

With `CN=c1sc2cc(-c3cc(CCC(=O)O)ccc3OCC3CCCC3)ccc2n1C` [Compound 305, 3-{4-cyclopentylmethyloxy-3-[3-methyl-2-(methylimino)-2,3-dihydrobenzothiazol-6-yl]phenyl}propionic acid] as the molecule, how does the inhibition at 0.4 µM read?
Its inhibition at 0.4 µM is no less than 50%.

With `Cc1ccc(COc2ccc(CCC(=O)O)cc2-c2ccc3[nH]ccc3c2)cc1` [Compound 138, 3-[3-(1H-indol-5-yl)-4-(4-methylphenylmethyloxy)phenyl]propionic acid] as the molecule, how does the inhibition at 0.4 µM read?
The inhibition at 0.4 µM was no less than 50%.

For `COc1ccc2cc(-c3cc(CCC(=O)O)ccc3OCC3CCCCC3)ccc2c1` [Compound 068, 3-[4-cyclohexylmethyloxy-3-(6-methoxynaphthalen-2-yl)phenyl]propionic acid], which inhibition at 0.4 µM is on record?
The inhibition at 0.4 µM was no less than 50%.

For `O=C(O)CCc1ccc(OC2CCCC2)c(-c2cccc3[nH]ccc23)c1` [Compound 118, 3-[4-cyclopentyloxy-3-(1H-indol-4-yl)phenyl]propionic acid], which inhibition at 0.4 µM is on record?
Its inhibition at 0.4 µM is no less than 50%.

With `CS(=O)(=O)c1ccc2cc(-c3cc(CCC(=O)O)ccc3OCC3CCCC3)ccc2c1` [Compound 022, 3-[4-cyclopentylmethyloxy-3-(6-methanesulfonylnaphthalen-2-yl)phenyl]propionic acid] as the molecule, how does the inhibition at 0.4 µM read?
Its inhibition at 0.4 µM is no less than 50%.

How did the inhibition at 0.4 µM turn out when `O=C(O)CCc1ccc(OCC2CCCC2)c(-c2ccc3occc3c2)c1` [Compound 277, 3-[3-(benzo[b]furan-5-yl)-4-cyclopentylmethyloxyphenyl]propionic acid] was run?
The inhibition at 0.4 µM was no less than 50%.

With `O=C(O)CCc1ccc(OCc2ccco2)c(-c2ccc3ccccc3c2)c1` [Compound 058, 3-{4-[(furan-2-yl)methyloxy]-3-(naphthalen-2-yl)phenyl}propionic acid] as the molecule, how does the inhibition at 0.4 µM read?
Its inhibition at 0.4 µM is no less than 50%.

`CCCCOc1ccc(CCC(=O)O)cc1-c1ccc2ccccc2c1` [Compound 037, 3-[4-butyloxy-3-(naphthalen-2-yl)phenyl]propionic acid] was tested. Which inhibition at 0.4 µM did it give?
Its inhibition at 0.4 µM is no less than 50%.
